The record followed here is the NIST ThermoML archive (doi:10.1016/j.jct.2016.05.027).

A short description of data set [1]: Molar enthalpy of transition or fusion. Particulars: Crystal; DSC.
For data set [2] the following is noted: Crystal.

Numbers after ± are expanded uncertainties.

Turning to `Cc1cccc([N+](=O)[O-])c1N` [2-methyl-6-nitroaniline], the “Molar enthalpy of transition or fusion” value in data set [1] is 5.77 ± 0.225 kcal/mol. In addition, the mass density – broadly, the mass of a sample divided by its volume – in data set [2] (298.15 K, 101.33 kPa, flotation method) amounted to 1242.4 ± 2.6 kg/m3. The Normal melting temperature in data set [2] (DTA) was 93.60 ± 1.1 °C.
